Results: US4073908A, “8-Amino-theophylline derivatives and therapeutic applications thereof” (Laboratoire le Brun S.A., priority 1975, dated 1978)

Assays:
[1] = system: psychotropic activity; experiment: Psychotropic activity, overall profile; conditions: in vivo
Excerpt: The psychotropic and anti-inflammatory effects of the derivatives of this invention were investigated according to several methods described hereinafter.

[2] = system: motor activity in mice; experiment: Motor-stimulant or -depressant activity, light-beam activometer; format: in vivo; conditions: sub-cutaneous or oral routes
Experimental: The motor-stimulant or -depressant activities were investigated in mice by the sub-cutaneous or oral routes by means of an activometric technique (light-beam activometer).
The dosages which increase or decrease the number of cases over the 50% limit were determined with respect to concomitantly effected reference tests.

[3] = system: aggressiveness subsequent to electric shocks in rats; experiment: Anti-aggressive: aggressiveness subsequent to electric shocks, rats; format: in vivo; conditions: Rattus norvegicus, oral, read-out: Oral AD50, electric shock in rats
Experimental: (§1) a. aggressiveness subsequent to electric shocks in mice and rats,
(§2) In all cases, the AD50 values were determined by the oral route.

[4] = system: group toxicity of amphetamine in mice; experiment: Antagonistic activity on the group toxicity of amphetamine in mice; format: in vivo; conditions: Mus musculus, read-out: AD50, antagonistic activity on the group toxicity of amphetamine
[5] = Acute toxicity in mice; format: in vivo; conditions: mouse, in vivo, single administration
Excerpt: (§3) Acute toxicity in mice by the sub-cutaneous and oral routes and in rats by the oral route was investigated by determination of the death rate following a single administration of increasing dosages.
(§4) Symbol > means that the LD50 is not attained at the dosage indicated.

[6] = system: licking reflex in mice; experiment: Antalgic: hot-plate test, licking reflex; format: in vivo; conditions: Mus musculus, plate heated at 65° C., read-out: AD50 in the hot-plate test (licking reflex)
Experimental: (§5) The following tests were carried out:
(§6) b. hot-plate test: licking reflex in mice on a plate heated at 65° C.

[7] = system: aggressiveness subsequent to extended isolation in mice; experiment: Anti-aggressive: aggressiveness subsequent to extended isolation, mice; format: in vivo; conditions: Mus musculus, oral, read-out: Oral AD50, isolated mice
Experimental: c. aggressiveness subsequent to extended isolation, in mice,
as §2

[8] = system: rats; experiment: Oral subacute toxicity in rats; format: in vivo; conditions: 1 month old rats, up to a daily dosage of 100 mg/kg
Excerpt: Oral subacute toxicity in rats was investigated by determination of the death rate (if any), of the change in the weight of some organs, and by hematologic examinations, and the like.
Subacute toxicity in 1 month old rats, with compounds Nos. 11 and 18

[9] = system: narcosis induced by ethanol in mice; experiment: Effect on narcosis induced by ethanol; format: in vivo
Excerpt: d. Effect on narcosis induced by pentobarbital and ethanol in mice.

[10] = system: aggressiveness subsequent to electric shocks in mice; experiment: Anti-aggressive: aggressiveness subsequent to electric shocks, mice; format: in vivo; conditions: Mus musculus, oral, read-out: Oral AD50, electric shock in mice
Experimental: as §1, §2

[11] = Acute toxicity in rats; format: in vivo; conditions: rat, in vivo, po, single administration
Excerpt: as §3, §4

[12] = system: writhing in mice; experiment: Antalgic: writhing test in mice (intraperitoneal acetic acid); format: in vivo; conditions: Mus musculus, oral route, read-out: AD50 on administration of acetic acid
Experimental: as §5
(§7) a. writhing test in mice, by the oral route (on intraperitoneal administration of acetic acid),

[13] = system: aggressiveness subsequent to apomorphine injection in rats; experiment: Anti-aggressive: aggressiveness subsequent to apomorphine injection, rats; format: in vivo; conditions: Rattus norvegicus, oral, apomorphine injection 1 mg/kg, read-out: Oral AD50, apomorphine, in rats
Experimental: b. aggressiveness subsequent to apomorphine injection (1 mg/kg, in vivo) in rats,
as §2

[14] = system: aggressiveness in mice-killing rats; experiment: Anti-aggressive: aggressiveness in mice-killing rats; format: in vivo; conditions: Rattus norvegicus, oral, read-out: Oral AD50, mice-killing rats
Experimental: d. aggressiveness in mice-killing rats.
as §2

[15] = system: antalgic activity in mice; experiment: Antalgic activity overall (writhing and hot-plate); format: in vivo
Experimental: as §5, §7, §6

## Cn1c(=O)c2c(nc3n2CCCN3CCN2CCN(c3cccc(Cl)c3)CC2)n(C)c1=O [Compound 18, 9-(2-4-(m-chlorophenyl)piperazin-1-yl!-ethyl)1,3-dimethyl-6,7,8,9-tetrahydropyrimidino(2,1-f)-purine-2,4-dione]
[1]
  psychotropic activity (in words): has the same characteristics
[2]; Mus musculus, read-out: AD50, sedative action
  ED50: 7.5 mg/kg
[2]
  sedative action (in words): more sedative
[3]
  ED50: 45 mg/kg
[4]
  ED50: 20 mg/kg
[5]; po, read-out: LD50, oral route, mice
  LD50: > 300 mg/kg
[5]; sc, read-out: LD50, s.c. route, mice
  LD50: > 300 mg/kg
[6]
  ED50: 8.5 mg/kg
[7]
  ED50: 9 mg/kg
[8]
  death rate (fatal issue): No fatal issue was noted
[9]
  ethanol-induced narcosis-potentiating effect: potentiates ethanol-induced narcosis
[10]
  ED50: 15 mg/kg
[11]
  LD50: > 100 mg/kg
[12]
  ED50: 13 mg/kg
[13]
  ED50: 85 mg/kg
[14]
  ED50: 22 mg/kg
[15]
  antalgic activity (in words): more antalgic
